Data taken from patent publication US6291515A, “Use of efomycins” (Bayer Aktiengesellschaft, priority 1996, dated 2001).

Legend:
Format in all cases: cell-based
[1] = test system: cultured endothelial cells; assay: MTT test for cytotoxicity on endothelial cells; conditions: at efficacious concentrations
[2] = test system: adhesion of human PMNL to hypoxia-stimulated pig aorta; assay: Inhibition of PMNL adhesion to hypoxia-stimulated pig aortas, human PMNL; conditions: proportion of adherent PMNL vs control (=100), 90-minute coincubation at 37° C., MPO readout
Procedure: (§1) Freshly isolated pig aortas were brought into the laboratory from the local slaughterhouse in oxygen-aerated, phosphate-buffered saline solution (PBS). Freshly obtained pig or human blood was taken for the preparation of polymorphonuclear neutrophilic granulocytes (PMNL). The aortas were stimulated by placing them for 30 minutes in PBS which was aerated with nitrogen (hypoxia stimulus). The aorta were then fixed between a Teflon block (below) and a specially made steel plate (above) with drilled wells (similar to a microtiter plate). PMNL and the potential adhesion inhibitors were added to the luminal side, i.e. to the stimulated endothelial cell layer, in cell media (M199, Gibco). After a 90-minute coincubation at 37° C. in an incubator, the wells were washed. The remaining adherent PMNL were lysed. The activity of the PMNL-specific myeloperoxidase (MPO) in the lysate was determined photometrically and compared to the untreated control (only solvent). […] The proportion of the adherent PMNL in comparison with the control is indicated.
(§2) Inhibition of the adhesion of pig PMNL or human PMNL to hypoxia-stimulated pig aorta by efomycins

[3] = test system: adhesion of pig PMNL to hypoxia-stimulated pig aorta; assay: Inhibition of PMNL adhesion to hypoxia-stimulated pig aortas, pig PMNL; conditions: for % adherent PMNL, Pig PMNL: hypoxia-stimulated pig aorta, proportion of adherent PMNL vs control (=100), 90-minute coincubation at 37° C., MPO readout
Procedure: as §1, §2

[4] = test system: adhesion of PMNL to albumin-coated plastic surfaces; assay: Adhesion of PMNL to albumin-coated plastic surfaces; conditions: test described in EP 0 461 499 A2 (Use Example 1)
Description: The adhesion test to albumin-coated plastic surfaces is described in detail, inter alia, in EP 0 461 499 A2 (Use Example 1).

`CC[C@@H](/C=C/C(=O)[C@@H](C)[C@H](O)[C@H](C)[C@H]1OC(=O)/C=C/C=C/[C@H](C)[C@@H]([C@@H](C)[C@@H](O)[C@H](C)C(=O)/C=C/[C@H](CC)[C@@H](C)O)OC(=O)/C=C/C=C/[C@@H]1C)[C@@H](C)O` [Ex. No. 1] was tested, and the “cytotoxicity against endothelial cells in the MTT test” value [1] was “no cytotoxicity”, the “% adherent PMNL, Human PMNL” value [2] was 52 ± 2% and the “activity in the test model described (PMNL adhesion to hypoxia-stimulated pig aorta), in words” value ([3]; PMNL species not given) was “active”. The “% adherent PMNL, Pig PMNL” value [3] was 33 ± 23% and the “inhibition of adhesion of PMNL to albumin-coated plastic surfaces” value [4] was “does not inhibit”.
In the case of `CC[C@@H](/C=C/C(=O)[C@@H](C)[C@H](OC(C)=O)[C@H](C)[C@H]1OC(=O)/C=C/C=C/[C@H](C)[C@@H]([C@@H](C)[C@@H](OC(C)=O)[C@H](C)C(=O)/C=C/[C@H](CC)[C@@H](C)OC(C)=O)OC(=O)/C=C/C=C/[C@@H]1C)[C@@H](C)OC(C)=O` [Ex. No. 2], the “% adherent PMNL, Human PMNL” value [2] is reported as 90 ± 5% and the “% adherent PMNL, Pig PMNL” value [3] is reported as 85 ± 11%.
